Among the data in US8729082B2, “Substituted imidazoquinoxalines” (Bayer Intellectual Property GmbH, priority 2009, dated 2014) are IC50 values, retold here.

The target in the experiment is T1, human kinase Mps-1 (Homo sapiens, UniProt P33981).
T1 construct: N-terminally GST-tagged human full length recombinant Mps-1 kinase; purchased Invitrogen, Karslruhe, Germany PV4071
T1 sequence (P33981 1-857): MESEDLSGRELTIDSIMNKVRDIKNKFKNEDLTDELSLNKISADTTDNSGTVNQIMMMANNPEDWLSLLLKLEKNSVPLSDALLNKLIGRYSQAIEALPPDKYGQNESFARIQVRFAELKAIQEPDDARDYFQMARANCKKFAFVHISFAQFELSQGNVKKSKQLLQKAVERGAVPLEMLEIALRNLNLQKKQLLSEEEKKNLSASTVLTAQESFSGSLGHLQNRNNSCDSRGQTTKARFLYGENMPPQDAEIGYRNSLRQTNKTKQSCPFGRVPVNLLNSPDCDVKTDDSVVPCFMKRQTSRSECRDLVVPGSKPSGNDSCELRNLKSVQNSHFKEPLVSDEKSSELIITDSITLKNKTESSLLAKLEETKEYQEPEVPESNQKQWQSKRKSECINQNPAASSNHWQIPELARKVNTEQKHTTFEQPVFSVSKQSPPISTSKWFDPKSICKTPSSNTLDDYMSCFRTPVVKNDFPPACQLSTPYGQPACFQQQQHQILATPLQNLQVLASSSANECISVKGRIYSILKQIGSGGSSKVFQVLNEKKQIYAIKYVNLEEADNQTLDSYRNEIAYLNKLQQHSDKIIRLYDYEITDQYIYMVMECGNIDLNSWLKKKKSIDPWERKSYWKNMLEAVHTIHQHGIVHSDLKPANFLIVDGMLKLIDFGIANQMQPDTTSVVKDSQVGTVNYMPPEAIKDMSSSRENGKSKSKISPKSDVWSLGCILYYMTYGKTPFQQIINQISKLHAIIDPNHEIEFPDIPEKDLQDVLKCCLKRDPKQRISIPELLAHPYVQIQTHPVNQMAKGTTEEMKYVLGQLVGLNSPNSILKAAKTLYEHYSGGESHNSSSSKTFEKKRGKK
The experiment is described as follows: Mps-1 kinase assay (HTRF). It counts as biochemical. Conditions: lowATP; mean; read-out: Mps1 lowATP mean IC50. A digest of the protocol:
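HTRF readout: EDTA-stopped reactions incubated 1 h with europium anti-phospho(Ser/Thr) antibody and streptavidin-XLent, emission ratio 665/620 nm after 350 nm excitation. Kinase step: compound pre-bound 15 min to ~1 nM GST-Mps-1, then 60 min at 22 °C with ATP and biotin-peptide substrate; inhibition scaled between no-inhibitor (0%) and no-enzyme (100%) controls.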
For `CC(C)CNc1nc2cc(C#N)ccc2n2c(-c3ccc(C(=O)NC4CC4)cc3)cnc12` [Example 2-216, 4-{7-cyano-4-[(2-methylpropyl)amino]imidazo[1,2-a]quinoxalin-1-yl}-N-cyclopropylbenzamide], the concentration for half-maximal inhibition (IC50) was found to be 9.56 nM.
With `N#Cc1ccc2c(c1)nc(NCCC(N)=O)c1ncc(-c3ccc(C(=O)NC4CC4)cc3)n12` [Example 2-217, 4-{4-[(3-amino-3-oxopropyl)amino]-7-cyanoimidazo[1,2-a]quinoxalin-1-yl}-N-cyclopropylbenzamide] the figure was 140 nM; with `COCCCNc1nc2cc(C#N)ccc2n2c(-c3ccc(C(=O)NC4CC4)cc3)cnc12` [Example 2-218, 4-{7-cyano-4-[(3-methoxypropyl)amino]imidazo[1,2-a]quinoxalin-1-yl}-N-cyclopropylbenzamide], 50.7 nM; with `Cn1ccc(CNc2nc3cc(C#N)ccc3n3c(-c4ccc(C(=O)NC5CC5)cc4)cnc23)n1` [Example 2-219, 4-(7-cyano-4-{[(1-methyl-1H-pyrazol-3-yl)methyl]amino}imidazo[1,2-a]quinoxalin-1-yl)-N-cyclopropylbenzamide], 59.6 nM.
The value for `Cn1nccc1CNc1nc2cc(C#N)ccc2n2c(-c3ccc(C(=O)NC4CC4)cc3)cnc12` [Example 2-220, 4-(7-cyano-4-{[(1-methyl-1H-pyrazol-5-yl)methyl]amino}imidazo[1,2-a]quinoxalin-1-yl)-N-cyclopropylbenzamide] was 15.6 nM; that for `Cn1cc(CNc2nc3cc(C#N)ccc3n3c(-c4ccc(C(=O)NC5CC5)cc4)cnc23)cn1` [Example 2-221, 4-(7-cyano-4-{[(1-methyl-1H-pyrazol-4-yl)methyl]amino}imidazo[1,2-a]quinoxalin-1-yl)-N-cyclopropylbenzamide] was 67.1 nM; that for `N#Cc1ccc2c(c1)nc(NCC(O)CO)c1ncc(-c3ccc(C(=O)NC4CC4)cc3)n12` (centres unmarked) [Example 2-222, 4-{7-cyano-4-[(2,3-dihydroxypropyl)amino]imidazo[1,2-a]quinoxalin-1-yl}-N-cyclopropylbenzamide] was 127 nM.
For `CNC(=O)Nc1ccc(-c2cnc3c(NCCO)nc4cc(C#N)ccc4n23)cc1` [Example 2-223, 1-(4-{7-cyano-4-[(2-hydroxyethyl)amino]imidazo[1,2-a]quinoxalin-1-yl}phenyl)-3-methylurea], the concentration for half-maximal inhibition (IC50) was 4320 nM.
Consider `CNC(=O)Nc1ccc(-c2cnc3c(NCCC(C)C)nc4cc(C#N)ccc4n23)cc1` [Example 2-224, 1-(4-{7-cyano-4-[(3-methylbutyl)amino]imidazo[1,2-a]quinoxalin-1-yl}phenyl)-3-methylurea], for which the IC50 worked out at 3290 nM.
Regarding `CNC(=O)Nc1ccc(-c2cnc3c(NCCCN4CCCC4=O)nc4cc(C#N)ccc4n23)cc1` [Example 2-225, 1-[4-(7-cyano-4-{[3-(2-oxopyrrolidin-1-yl)propyl]amino}imidazo[1,2-a]quinoxalin-1-yl)phenyl]-3-methylurea], the concentration for half-maximal inhibition (IC50) was 8110 nM.
Turning to `CNC(=O)Nc1ccc(-c2cnc3c(NCc4cccs4)nc4cc(C#N)ccc4n23)cc1` [Example 2-226, 1-(4-{7-cyano-4-[(thiophen-2-ylmethyl)amino]imidazo[1,2-a]quinoxalin-1-yl}phenyl)-3-methylurea], the concentration for half-maximal inhibition (IC50) came out at 2820 nM.
With `CNC(=O)Nc1ccc(-c2cnc3c(NCCCO)nc4cc(C#N)ccc4n23)cc1` [Example 2-227, 1-(4-{7-cyano-4-[(3-hydroxypropyl)amino]imidazo[1,2-a]quinoxalin-1-yl}phenyl)-3-methylurea] the figure was 3470 nM.
With `CNC(=O)Nc1ccc(-c2cnc3c(NCCNC(C)=O)nc4cc(C#N)ccc4n23)cc1` [Example 2-228, N-{2-[(7-cyano-1-{4-[(methylcarbamoyl)amino]phenyl}imidazo[1,2-a]quinoxalin-4-yl)amino]ethyl}acetamide], the IC50 was 9780 nM.
With `CNC(=O)Nc1ccc(-c2cnc3c(NCCCn4ccnc4)nc4cc(C#N)ccc4n23)cc1` [Example 2-229, 1-[4-(7-cyano-4-{[3-(1H-imidazol-1-yl)propyl]amino}imidazo[1,2-a]quinoxalin-1-yl)phenyl]-3-methylurea] the figure was 4990 nM; with `CNC(=O)Nc1ccc(-c2cnc3c(NCc4cccnc4)nc4cc(C#N)ccc4n23)cc1` [Example 2-230, 1-(4-{7-cyano-4-[(pyridin-3-ylmethyl)amino]imidazo[1,2-a]quinoxalin-1-yl}phenyl)-3-methylurea], 1410 nM; with `CNC(=O)Nc1ccc(-c2cnc3c(NCc4ccco4)nc4cc(C#N)ccc4n23)cc1` [Example 2-231, 1-(4-{7-cyano-4-[(furan-2-ylmethyl)amino]imidazo[1,2-a]quinoxalin-1-yl}phenyl)-3-methylurea], 5210 nM.
The value for `CNC(=O)Nc1ccc(-c2cnc3c(NCc4ccnn4C)nc4cc(C#N)ccc4n23)cc1` [Example 2-232, 1-[4-(7-cyano-4-{[(1-methyl-1H-pyrazol-5-yl)methyl]amino}imidazo[1,2-a]quinoxalin-1-yl)phenyl]-3-methylurea] was 1140 nM; that for `CNC(=O)Nc1ccc(-c2cnc3c(NCC(O)CO)nc4cc(C#N)ccc4n23)cc1` (centres unmarked) [Example 2-233, 1-(4-{7-cyano-4-[(2,3-dihydroxypropyl)amino]imidazo[1,2-a]quinoxalin-1-yl}phenyl)-3-methylurea] was 17800 nM; that for `CCCNc1nc2cc(C#N)ccc2n2c(-c3ccc(C(=O)NC4CC4)c(Cl)c3)cnc12` [Example 2-234, 2-chloro-4-[7-cyano-4-(propylamino)imidazo[1,2-a]quinoxalin-1-yl]-N-cyclopropylbenzamide] was 810 nM.
As for `N#Cc1ccc2c(c1)nc(NCCO)c1ncc(-c3ccc(C(=O)NC4CC4)c(Cl)c3)n12` [Example 2-235, 2-chloro-4-{7-cyano-4-[(2-hydroxyethyl)amino]imidazo[1,2-a]quinoxalin-1-yl}-N-cyclopropylbenzamide], the concentration for half-maximal inhibition (IC50) was determined as 3450 nM.
The value for `N#Cc1ccc2c(c1)nc(NCCCN1CCOCC1)c1ncc(-c3ccc(C(=O)NC4CC4)c(Cl)c3)n12` [Example 2-236, 2-chloro-4-(7-cyano-4-{[3-(morpholin-4-yl)propyl]amino}imidazo[1,2-a]quinoxalin-1-yl)-N-cyclopropylbenzamide] was 15000 nM; that for `CC(C)CCNc1nc2cc(C#N)ccc2n2c(-c3ccc(C(=O)NC4CC4)c(Cl)c3)cnc12` [Example 2-237, 2-chloro-4-{7-cyano-4-[(3-methylbutyl)amino]imidazo[1,2-a]quinoxalin-1-yl}-N-cyclopropylbenzamide] was 600 nM; that for `N#Cc1ccc2c(c1)nc(NCc1ccccc1F)c1ncc(-c3ccc(C(=O)NC4CC4)c(Cl)c3)n12` [Example 2-238, 2-chloro-4-{7-cyano-4-[(2-fluorobenzyl)amino]imidazo[1,2-a]quinoxalin-1-yl}-N-cyclopropylbenzamide] was 613 nM.
With `N#Cc1ccc2c(c1)nc(NCCCCO)c1ncc(-c3ccc(C(=O)NC4CC4)c(Cl)c3)n12` [Example 2-239, 2-chloro-4-{7-cyano-4-[(4-hydroxybutyl)amino]imidazo[1,2-a]quinoxalin-1-yl}-N-cyclopropylbenzamide] the figure was 1040 nM.
The value for `N#Cc1ccc2c(c1)nc(NCc1ccccc1)c1ncc(-c3ccc(C(=O)NC4CC4)c(Cl)c3)n12` [Example 2-240, 4-[4-(benzylamino)-7-cyanoimidazo[1,2-a]quinoxalin-1-yl]-2-chloro-N-cyclopropylbenzamide] was 889 nM; that for `N#Cc1ccc2c(c1)nc(NCc1cccs1)c1ncc(-c3ccc(C(=O)NC4CC4)c(Cl)c3)n12` [Example 2-241, 2-chloro-4-{7-cyano-4-[(thiophen-2-ylmethyl)amino]imidazo[1,2-a]quinoxalin-1-yl}-N-cyclopropylbenzamide] was 546 nM; that for `N#Cc1ccc2c(c1)nc(NCCCO)c1ncc(-c3ccc(C(=O)NC4CC4)c(Cl)c3)n12` [Example 2-242, 2-chloro-4-{7-cyano-4-[(3-hydroxypropyl)amino]imidazo[1,2-a]quinoxalin-1-yl}-N-cyclopropylbenzamide] was 3780 nM.
`CCCCNc1nc2cc(C#N)ccc2n2c(-c3ccc(C(=O)NC4CC4)c(Cl)c3)cnc12` [Example 2-243, 4-[4-(butylamino)-7-cyanoimidazo[1,2-a]quinoxalin-1-yl]-2-chloro-N-cyclopropylbenzamide]: the IC50 amounted to 506 nM.
With `CC(=O)NCCNc1nc2cc(C#N)ccc2n2c(-c3ccc(C(=O)NC4CC4)c(Cl)c3)cnc12` [Example 2-244, 4-(4-{[2-(acetylamino)ethyl]amino}-7-cyanoimidazo[1,2-a]quinoxalin-1-yl)-2-chloro-N-cyclopropylbenzamide] the figure was 8820 nM.

The IC50 is the concentration that inhibits the measured activity by half.
